Structures can show the parent of a compound that is named as a salt.
Tests used:
Ae. aegypti [1] = experiment: Blood-feeding assay (artificial membrane feeder) after microinjection; format: in vivo, Aedes aegypti; details: 1 mM microinjected
Protocol: (§1) Stock solutions of the compounds were diluted to the appropriate concentrations in 1X phosphate buffer solution (PBS). To account for potential solvent effects, an ultrapure H2O control group was included in every independent experiment. Female mosquitoes were either cold- or CO2-anesthetized. A Nanoject II Auto-Nanoliter Injector (Drummond Scientific Company, Broomall, PA) was then utilized to microinject 69 nL of compound into the spiracle.
Seven to ten-day old female mosquitoes were treated with compound or appropriate control through microinjection post cold-anesthetization or ingestion. Two mL of human O^+ blood (BioChemed Services, Winchester, VA) was utilized to cover the concave surface of an inverted baby food jar. Hog intestine sealed the opening to simulate the puncturing of a host’s skin. The feeding membrane was placed on the top of a mosquito cage, and hot water was poured into the jar to warm the blood. After a 45-minute feed, the mosquitoes were immediately preserved at −20 °C. The blood meal size was determined for each mosquito via hemoglobinometry as previously described.
(§2) Luminescence and calcium assay data were normalized and fitted with a non-linear least squares regression to generate dose-response curves, EC50 and IC50 values. Unpaired t-tests or Dunnett’s multiple comparisons test were performed accordingly to compare EC50 or IC50 values. Locomotion was measured based on the distance required for flight recovery. Data were compared with the Kruskal-Wallis and Dunnett’s multiple comparison tests after the Kolmogorov-Smirnov normality test was conducted. In the blood-feeding experiments, the percentage of blood-fed mosquitoes was calculated for each treatment group. For each biological replicate, the treatment groups were normalized with respect to the untreated group. Dunnett’s multiple comparison tests were utilized to determine statistical difference between normalized data. Size of bloodmeals were compared with an unpaired t-test or Mann-Whitney test after normality was evaluated with the Kolmogorov-Smirnov test. All analyses were performed utilizing GraphPad Prism version 7.00 for Mac OS X, GraphPad Software, La Jolla California USA, www.graphpad.com.

Ae. aegypti [2] = experiment: Flight performance in flight cylinder after microinjection; format: in vivo, Aedes aegypti; details: for Distance average in flight cylinder: Fig. 5d; for Average distance dropped before landing on flight cylinder: Fig. 5b
Protocol: as §1
A flight cylinder was assembled as described previously. The polyacrylamide sheet was coated with Tangle-Trap Sticky Coating (The Scotts Company LLC, Marysville, OH) and allowed to sit overnight before insertion into the flight cylinder. Adult mosquitoes were anesthetized on a CO2 pad and microinjected with the compound or ultrapure H2O control. Post-injection, they were permitted to recover in a fly vial for 30 minutes before being ejected into the flight cylinder. After each trial, the distance between the top of the cylinder and the trapped mosquito was recorded. Mosquitoes captured in the fly vial at the bottom of the cylinder were considered to be incapable of flying and a distance of 91.5 cm was recorded.
as §2

D. melanogaster = test system: D. melanogaster; set-up: method as in PMID 26989517, PMID 24586928; details: larval and adult; cited from earlier work
AGAP002232 = AGAP002232 (Anopheles gambiae, UniProt A0A1S4GEY1); experiment: Fluo-4 calcium assay in CRE-luc2P HEK-293 cells expressing AGAP002232; format: cell-based
Sequence of AGAP002232 (A0A1S4GEY1 entry or part of it): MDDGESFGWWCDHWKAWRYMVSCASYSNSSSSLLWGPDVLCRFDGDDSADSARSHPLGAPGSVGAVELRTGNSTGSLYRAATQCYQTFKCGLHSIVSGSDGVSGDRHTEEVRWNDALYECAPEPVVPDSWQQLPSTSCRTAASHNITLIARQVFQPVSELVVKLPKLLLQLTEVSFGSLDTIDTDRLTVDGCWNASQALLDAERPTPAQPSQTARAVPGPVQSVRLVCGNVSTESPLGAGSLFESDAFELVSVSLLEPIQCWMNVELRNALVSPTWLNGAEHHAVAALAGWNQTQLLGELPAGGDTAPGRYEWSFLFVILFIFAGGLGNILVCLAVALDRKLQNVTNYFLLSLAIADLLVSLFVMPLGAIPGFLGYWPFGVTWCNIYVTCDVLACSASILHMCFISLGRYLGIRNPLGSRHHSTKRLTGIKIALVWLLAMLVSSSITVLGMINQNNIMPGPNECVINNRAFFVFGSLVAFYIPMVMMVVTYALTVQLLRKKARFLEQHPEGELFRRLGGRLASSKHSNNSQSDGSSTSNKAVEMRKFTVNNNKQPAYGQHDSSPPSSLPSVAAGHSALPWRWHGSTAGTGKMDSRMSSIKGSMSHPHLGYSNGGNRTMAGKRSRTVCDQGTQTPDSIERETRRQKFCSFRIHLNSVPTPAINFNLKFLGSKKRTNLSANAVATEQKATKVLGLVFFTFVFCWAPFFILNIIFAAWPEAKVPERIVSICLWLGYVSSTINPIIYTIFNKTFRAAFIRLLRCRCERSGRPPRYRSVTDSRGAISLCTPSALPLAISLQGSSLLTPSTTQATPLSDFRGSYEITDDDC
Protocol: The GloResponse™ CRE-luc2P human embryonic kidney (HEK-293) reporter cells were incubated at 37 °C with an atmosphere of 5% CO2, and maintained in Dulbecco’s Modified Eagle Medium (DMEM) supplemented with 10% fetal bovine serum (FBS) and […] hygromycin B. Transfection of the HEK-293 cells with 1 μg of plasmid DNA was performed with Amaxa Nucleofector™ technology (Lonza, Basel, Switzerland) as per manufacturer’s instructions. A week post-transfection, selective pressure was applied with […] of G418 antibiotic to generate stable lines.
(§3) 1 × 10^6 cells per well were seeded into a 96-well black all-clear bottom plate and incubated overnight in 10% FBS/90% DMEM at 37 °C with an atmosphere of 5% CO2. The following day, 2X Fluo-4 Direct calcium dye (Molecular Devices LLC, San Jose, CA) was added to each well and incubated in the same conditions for 45 minutes before the assay was completed. At this time, serial dilutions of the test compounds were prepared in a 96-well clear flat bottom plate. Fluorescence levels were determined with a FlexStation3 microplate reader, with excitation and emission wavelengths set to 485 and 525 nm, respectively (Molecular Devices LLC). Basal fluorescence levels were measured for 17 seconds, at which time, 25 μl of the agonist compound was added. Fluorescence measurements continued to be recorded for a total of 120 seconds at 2-second intervals. When testing antagonists, cells were treated with the compound prior to determination of fluorescence levels.
as §2

D. melanogaster larvae = test system: D. melanogaster larvae; set-up: method as in PMID 23817146; details: cited from earlier work
AGAP002229 = AGAP002229 (Anopheles gambiae, UniProt A7UR33); experiment: Fluo-4 calcium assay in CRE-luc2P HEK-293 cells expressing AGAP002229; format: cell-based; details: antagonist test; receptor not given, taken as both 5-HT2 cell lines
Sequence of AGAP002229 (A7UR33 entry or part of it): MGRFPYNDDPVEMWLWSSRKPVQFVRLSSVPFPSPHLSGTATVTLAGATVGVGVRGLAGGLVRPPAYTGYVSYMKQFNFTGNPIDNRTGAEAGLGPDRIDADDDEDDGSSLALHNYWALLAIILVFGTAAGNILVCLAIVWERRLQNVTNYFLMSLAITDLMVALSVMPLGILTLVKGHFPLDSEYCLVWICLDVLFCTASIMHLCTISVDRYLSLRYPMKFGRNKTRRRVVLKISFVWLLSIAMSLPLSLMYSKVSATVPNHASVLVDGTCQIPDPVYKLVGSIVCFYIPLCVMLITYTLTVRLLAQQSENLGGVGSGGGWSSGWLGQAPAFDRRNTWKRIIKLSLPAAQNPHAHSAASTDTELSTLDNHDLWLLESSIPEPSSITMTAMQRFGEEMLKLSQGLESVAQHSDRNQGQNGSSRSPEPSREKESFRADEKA
Protocol: A week post-transfection, selective pressure was applied with […] of G418 antibiotic to generate stable lines.
as §3, with “Fluorescence levels were determined with a FlexStation3 microplate reader, with excitation and emission wavelengths set to 485 and 525 nm, respectively (Molecular Devices LLC). Basal fluorescence levels were measured for 17 seconds, at which time, 25 μl of the agonist compound was added.” left out
as §2

[3] = test system: octopamine receptor (AGAP000045); experiment: Inhibition in HEK-293 cells expressing an octopamine receptor; format: cell-based, Anopheles gambiae
[4] = test system: D1-like dopamine receptors; details: cited from earlier work

| Structure (SMILES) | Successfully blood-fed, normalized to the untreated group (Ae. aegypti [1]) | Distance average in flight cylinder (Ae. aegypti [2]; 2.5 mM) [cm] | Distance average in flight cylinder (Ae. aegypti [2]; 4 mM) [cm] | Effect on locomotion (D. melanogaster) | Ability to inhibit activity in a dose-response manner (AGAP002232; antagonist test, receptor not given, taken as both 5-HT2 cell lines) | IC50 (AGAP002232; read-out: IC50 (calcium response to 5-HT), AGAP002232 HEK-293 cells) [nM] | Lowest concentration exhibiting inhibitory effects (AGAP002232; receptor not given) | Effect on feeding (D. melanogaster larvae) | Ability to inhibit activity in a dose-response manner (AGAP002229) | Inhibitory effect on octopamine receptor ([3]; 10^−4 M) | Inhibitory effect on octopamine receptor ([3]; all other concentrations of the range 10^−10 to 10^−4 M) | Inhibition of D1-like dopamine receptors [4] | Blood meal size (Ae. aegypti [1]) [µL] | Successful flights (Ae. aegypti [2]; 1 mM microinjected (69 nL)) [%] | Average distance dropped before landing on flight cylinder (Ae. aegypti [2]; 1 mM) [cm] | Successful flights (Ae. aegypti [2]; 1.5 mM microinjected (69 nL)) [%] | Average distance dropped before landing on flight cylinder (Ae. aegypti [2]; 1.5 mM) [cm] | Average distance in flight cylinder (Ae. aegypti [2]; 1.5 mM, Fig. 5c) [cm] | Successful flights (Ae. aegypti [2]; 2.5 mM microinjected (69 nL)) [%] | Average distance dropped before landing on flight cylinder (Ae. aegypti [2]; 2.5 mM) [cm] |
| --- | --- | --- | --- | --- | --- | --- | --- | --- | --- | --- | --- | --- | --- | --- | --- | --- | --- | --- | --- | --- |
| CNCCC(Oc1ccc(C(F)(F)F)cc1)c1ccccc1 (stereo not drawn) [fluoxetine, fluoxetine hydrochloride] | approximately 80% | 41.61 | 81.63 | repress locomotion |  |  |  |  |  |  |  |  |  |  |  |  |  |  |  |  |
| CS(=O)(=O)O.CSc1ccc2c(c1)C(N1CCN(C)CC1)Cc1ccccc1S2 (stereo not drawn) [methiothepin, methiothepin mesylate salt] | 50.7% |  |  |  | exhibited the ability to inhibit activity in a dose-response manner | 0.56 | 10^−16 M | anorectic agent | exhibited the ability to inhibit activity in a dose-response manner | marked inhibition | did not elicit a similar result | ability to inhibit D1-like dopamine receptors | 2.25 | 92 | 22.77 | 84 | 33.04 | 41.38 | 61 | 49.27 |

Source: publication PMC6418270, “The pharmacological and functional characterization of the serotonergic system in Anopheles gambiae and Aedes aegypti: influences on flight and blood-feeding behavior” (Scientific Reports, 2019)
